For series [1], the target named is Vascular endothelial growth factor receptor 2 (Homo sapiens, UniProt P35968). Put plainly: Inhibition of VEGFR2 (unknown origin) at 1 uM by caliper mobility shift assay relative to control.
The target in series [2] is T1, von Hippel-Lindau disease tumor suppressor/Vascular endothelial growth factor receptor 2 (Homo sapiens, UniProt P35968+P40337). In words: PROTAC activity at VHL/VEGFR2 in human HGC-27 cells assessed as reduction in VEGFR2 protein level incubated for 24 hrs by Western blot analysis. Format: cell-based. (In general: Immunoblotting shows a protein as a band on a membrane.)
Target sequence in this assay (P35968 whole entry): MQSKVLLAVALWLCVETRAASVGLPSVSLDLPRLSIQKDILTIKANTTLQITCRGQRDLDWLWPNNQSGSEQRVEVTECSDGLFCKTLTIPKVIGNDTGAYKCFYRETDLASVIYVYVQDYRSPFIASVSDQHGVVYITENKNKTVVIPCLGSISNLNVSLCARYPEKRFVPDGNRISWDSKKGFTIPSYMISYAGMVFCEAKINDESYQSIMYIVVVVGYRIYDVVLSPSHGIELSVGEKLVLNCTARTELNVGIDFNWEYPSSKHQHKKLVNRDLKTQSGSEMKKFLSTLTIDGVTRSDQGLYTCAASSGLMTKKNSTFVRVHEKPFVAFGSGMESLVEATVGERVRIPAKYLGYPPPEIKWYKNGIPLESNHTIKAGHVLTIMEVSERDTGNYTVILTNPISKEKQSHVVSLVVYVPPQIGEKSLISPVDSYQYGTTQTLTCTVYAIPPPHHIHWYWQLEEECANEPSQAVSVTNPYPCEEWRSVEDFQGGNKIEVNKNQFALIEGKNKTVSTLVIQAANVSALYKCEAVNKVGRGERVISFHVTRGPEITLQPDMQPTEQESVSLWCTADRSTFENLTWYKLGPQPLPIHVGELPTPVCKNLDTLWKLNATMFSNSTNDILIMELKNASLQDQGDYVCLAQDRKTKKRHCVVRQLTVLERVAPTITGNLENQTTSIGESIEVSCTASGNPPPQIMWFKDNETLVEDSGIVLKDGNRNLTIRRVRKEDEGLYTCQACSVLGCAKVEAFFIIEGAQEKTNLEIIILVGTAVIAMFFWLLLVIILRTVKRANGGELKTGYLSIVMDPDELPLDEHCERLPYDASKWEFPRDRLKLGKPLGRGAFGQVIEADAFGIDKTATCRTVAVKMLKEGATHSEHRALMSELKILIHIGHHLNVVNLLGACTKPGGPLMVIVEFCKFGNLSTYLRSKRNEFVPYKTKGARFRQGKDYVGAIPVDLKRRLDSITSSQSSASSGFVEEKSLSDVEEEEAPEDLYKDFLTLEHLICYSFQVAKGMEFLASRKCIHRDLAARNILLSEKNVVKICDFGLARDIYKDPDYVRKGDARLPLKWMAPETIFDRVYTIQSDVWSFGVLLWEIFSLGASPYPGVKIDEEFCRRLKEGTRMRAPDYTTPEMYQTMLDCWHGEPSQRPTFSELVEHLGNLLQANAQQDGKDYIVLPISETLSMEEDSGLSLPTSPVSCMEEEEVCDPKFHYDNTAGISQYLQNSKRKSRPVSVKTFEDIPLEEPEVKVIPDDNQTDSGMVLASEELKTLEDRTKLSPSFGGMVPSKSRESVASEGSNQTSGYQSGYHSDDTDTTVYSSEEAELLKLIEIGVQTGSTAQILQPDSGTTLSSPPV
Target sequence in this assay (P40337 whole entry): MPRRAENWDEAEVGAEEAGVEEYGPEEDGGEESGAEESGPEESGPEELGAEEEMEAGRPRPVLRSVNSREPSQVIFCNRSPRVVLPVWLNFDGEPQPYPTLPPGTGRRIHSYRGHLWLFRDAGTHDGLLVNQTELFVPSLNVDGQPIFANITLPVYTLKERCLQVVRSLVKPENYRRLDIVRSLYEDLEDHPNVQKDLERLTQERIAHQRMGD

Series [3] can be described thus: Cytotoxicity against HEK293T cells assessed as inhibition of cell growth incubated for 72 hrs by MTT assay. Type of series: toxicity, cell-based, HEK-293T. Particulars: human. (In general: Tetrazolium dyes change colour on reduction, which living cells bring about.)
A short description of series [4]: Cytotoxicity against HUVEC cells assessed as inhibition of cell growth incubated for 72 hrs by MTT assay. Particulars: human. Type of series: toxicity, cell-based.
The nature of series [5]: Cytotoxicity against human GES1 cells assessed as inhibition of cell growth incubated for 72 hrs by MTT assay. Type of series: toxicity, cell-based.
The next series relates to HGC-27. Put plainly: Antiproliferative activity against human HGC-27 cells assessed as inhibition of cell growth incubated for 72 hrs by MTT assay. Format: functional, cell-based. Particulars: HGC-27, 72 h.
Series [6] deals with T1, von Hippel-Lindau disease tumor suppressor/Vascular endothelial growth factor receptor 2. Put plainly: PROTAC activity at VHL/VEGFR2 in human HGC-27 cells assessed as reduction in VEGFR2 protein level by measuring maximal efficacy incubated for 24 hrs by Western blot analysis relative to control. Type of series: cell-based.
Target sequence in this assay (P35968 20-1356 limits assumed): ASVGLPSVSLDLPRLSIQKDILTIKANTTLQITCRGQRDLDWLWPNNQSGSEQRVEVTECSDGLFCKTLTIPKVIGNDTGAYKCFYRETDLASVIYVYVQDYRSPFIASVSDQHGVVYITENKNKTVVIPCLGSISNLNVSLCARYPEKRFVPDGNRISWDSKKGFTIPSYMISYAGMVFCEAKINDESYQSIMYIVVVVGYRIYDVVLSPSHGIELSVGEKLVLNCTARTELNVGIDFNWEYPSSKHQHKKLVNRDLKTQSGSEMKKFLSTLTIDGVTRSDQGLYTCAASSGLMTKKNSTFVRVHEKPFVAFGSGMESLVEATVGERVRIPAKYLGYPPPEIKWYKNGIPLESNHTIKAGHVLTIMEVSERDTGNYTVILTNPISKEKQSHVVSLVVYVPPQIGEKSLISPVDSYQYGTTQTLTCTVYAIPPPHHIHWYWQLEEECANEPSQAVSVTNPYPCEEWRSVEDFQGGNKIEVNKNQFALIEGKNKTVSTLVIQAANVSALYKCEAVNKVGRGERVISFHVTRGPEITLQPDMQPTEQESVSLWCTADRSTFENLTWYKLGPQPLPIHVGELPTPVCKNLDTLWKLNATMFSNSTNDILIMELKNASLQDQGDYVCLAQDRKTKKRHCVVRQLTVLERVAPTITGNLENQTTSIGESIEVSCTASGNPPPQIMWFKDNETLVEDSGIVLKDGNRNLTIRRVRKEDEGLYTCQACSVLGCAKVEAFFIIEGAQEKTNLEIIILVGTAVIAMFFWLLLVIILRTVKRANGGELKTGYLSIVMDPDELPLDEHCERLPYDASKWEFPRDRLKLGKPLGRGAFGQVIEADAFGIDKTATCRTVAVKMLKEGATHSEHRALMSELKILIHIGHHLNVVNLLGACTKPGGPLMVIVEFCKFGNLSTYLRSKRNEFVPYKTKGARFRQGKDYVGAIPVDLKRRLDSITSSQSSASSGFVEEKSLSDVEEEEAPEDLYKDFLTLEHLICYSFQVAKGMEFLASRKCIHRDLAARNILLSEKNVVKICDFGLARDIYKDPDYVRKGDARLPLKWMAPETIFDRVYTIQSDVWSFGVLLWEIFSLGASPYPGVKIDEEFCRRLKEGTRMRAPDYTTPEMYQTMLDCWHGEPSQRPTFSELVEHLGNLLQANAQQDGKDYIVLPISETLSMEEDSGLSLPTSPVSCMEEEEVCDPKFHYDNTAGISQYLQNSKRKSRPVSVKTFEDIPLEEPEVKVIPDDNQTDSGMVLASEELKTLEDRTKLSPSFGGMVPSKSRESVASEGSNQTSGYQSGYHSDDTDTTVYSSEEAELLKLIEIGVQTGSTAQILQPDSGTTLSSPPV
Target sequence in this assay (P40337 whole entry partner): as the sequence (P40337 whole entry) above

Vascular endothelial growth factor receptor 2, sequence (P35968 whole entry): as the sequence (P35968 whole entry) above

As for `Cc1ccc(NC(=O)Cn2cc(-c3ccc4c(NC(=O)c5ccc(N)cc5)nn(C(=O)CCCCCCCCCCC(=O)N[C@H](C(=O)N5C[C@H](O)C[C@H]5C(=O)NCc5ccc(-c6scnc6C)cc5)C(C)(C)C)c4c3)cn2)cc1C(F)(F)F`, the inhibition (in general, the percentage by which the read-out fell short of the control) in series [1] was determined as 96.3%. Moreover, in series [2], the EC50 (as a rule, the concentration needed to bring the measured effect to its halfway point) came out at 0.32 µM. The IC50 (as a rule, the midpoint of a concentration-inhibition curve) at 72 h in series [3] is 25.9 µM; in series [4], 34.6 µM; in series [5], 49.7 µM. The IC50 in the series with HGC-27 amounted to 1.44 µM. In addition, the Emax in series [6] came out at 81.7%.

Take `Cc1ccc(NC(=O)Cn2cc(-c3ccc4c(NC(=O)c5ccc(N6CCN(CCCCCCCC(=O)N[C@H](C(=O)N7C[C@H](O)C[C@H]7C(=O)NCc7ccc(-c8scnc8C)cc7)C(C)(C)C)CC6)cc5)n[nH]c4c3)cn2)cc1C(F)(F)F`: the EC50 in series [2] was greater than 3.33 µM. The values for the IC50 at 72 h in series [3], in series [4] and in series [5] were greater than 100 µM, greater than 50 µM and greater than 100 µM, respectively. The IC50 in the series on HGC-27 was 22.6 µM.

For the molecule `Cc1ccc(NC(=O)Cn2cc(-c3ccc4c(NC(=O)c5ccc(NC(=O)CCCCCCCCCC(=O)N[C@H](C(=O)N6C[C@H](O)C[C@H]6C(=O)NCc6ccc(-c7scnc7C)cc6)C(C)(C)C)cc5)n[nH]c4c3)cn2)cc1C(F)(F)F`, the IC50 at 72 h in series [3] was greater than 100 µM; in series [4], greater than 50 µM; in series [5] it was 12 µM. For the same molecule, the IC50 with HGC-27 was found to be 55.6 µM.

As for `Cc1ccc(NC(=O)Cn2cc(-c3ccc4c(NC(=O)c5ccc(N6CCN(C(=O)NCCCCCCCCCCC(=O)N[C@H](C(=O)N7C[C@H](O)C[C@H]7C(=O)NCc7ccc(-c8scnc8C)cc7)C(C)(C)C)CC6)cc5)n[nH]c4c3)cn2)cc1C(F)(F)F`, the IC50 at 72 h in series [3], in series [4] and in series [5] was greater than 100 µM throughout. The IC50 with HGC-27 is greater than 50 µM.

For `Cc1ccc(NC(=O)Cn2cc(-c3ccc4c(NC(=O)c5ccc(NC(=O)CCC(=O)N[C@H](C(=O)N6C[C@H](O)C[C@H]6C(=O)NCc6ccc(-c7scnc7C)cc6)C(C)(C)C)cc5)n[nH]c4c3)cn2)cc1C(F)(F)F`, the IC50 at 72 h in series [3] is 48.2 µM; in series [4], 28.2 µM; in series [5] it was 47.4 µM. Moreover, the IC50 in the series with HGC-27 was greater than 50 µM.

`Cc1ccc(NC(=O)Cn2cc(-c3ccc4c(NC(=O)c5ccc(NC(=O)CCCCC(=O)N6CCN(CCCCCC(=O)N[C@H](C(=O)N7C[C@H](O)C[C@H]7C(=O)NCc7ccc(-c8scnc8C)cc7)C(C)(C)C)CC6)cc5)n[nH]c4c3)cn2)cc1C(F)(F)F`: the IC50 at 72 h in series [3] is greater than 100 µM; in series [4] it was greater than 50 µM; in series [5], 26.8 µM. In addition, in the series on HGC-27, the IC50 is 23.9 µM.

Consider `Cc1ccc(NC(=O)Cn2cc(-c3ccc4c(NC(=O)c5ccc(N6CCN(C(=O)NCCCCC(=O)N[C@H](C(=O)N7C[C@H](O)C[C@H]7C(=O)NCc7ccc(-c8scnc8C)cc7)C(C)(C)C)CC6)cc5)n[nH]c4c3)cn2)cc1C(F)(F)F`, for which, in series [2], the EC50 is greater than 3.33 µM. Besides, the IC50 at 72 h in series [3], in series [4] and in series [5] was greater than 100 µM each time. In addition, the IC50 in the series on HGC-27 was greater than 50 µM. The Emax in series [6] is 17.3%.

As to `Cc1ccc(NC(=O)Cn2cc(-c3ccc4c(NC(=O)c5ccc(N6CCN(CCCCCCC(=O)N[C@H](C(=O)N7C[C@H](O)C[C@H]7C(=O)NCc7ccc(-c8scnc8C)cc7)C(C)(C)C)CC6)cc5)n[nH]c4c3)cn2)cc1C(F)(F)F`, the concentration for a half-maximal effect (EC50) in series [2] is greater than 3.33 µM. Also, the IC50 at 72 h is 38.6 µM in series [3], greater than 50 µM in series [4] and 22.4 µM in series [5]. The IC50 with HGC-27 came to 5.5 µM. Besides, the Emax in series [6] was 38.2%.

For `Cc1ccc(NC(=O)Cn2cc(-c3ccc4c(NC(=O)c5ccc(NC(=O)CCCCC(=O)N6CCN(CCCC(=O)N[C@H](C(=O)N7C[C@H](O)C[C@H]7C(=O)NCc7ccc(-c8scnc8C)cc7)C(C)(C)C)CC6)cc5)n[nH]c4c3)cn2)cc1C(F)(F)F`, the concentration for half-maximal inhibition (IC50) at 72 h came out at 38.2 µM in series [3], 10.9 µM in series [4] and 25.4 µM in series [5]. The IC50 with HGC-27 is 30.9 µM.

Take `Cc1ccc(NC(=O)Cn2cc(-c3ccc4c(NC(=O)c5ccc(N6CCN(CCCCC(=O)N[C@H](C(=O)N7C[C@H](O)C[C@H]7C(=O)NCc7ccc(-c8scnc8C)cc7)C(C)(C)C)CC6)cc5)n[nH]c4c3)cn2)cc1C(F)(F)F`: in series [2], the EC50 is greater than 3.33 µM. The values for the IC50 at 72 h in series [3], in series [4] and in series [5] were greater than 100 µM, greater than 50 µM and 60.3 µM, respectively. Moreover, the IC50 with HGC-27 was greater than 50 µM. Further, the Emax in series [6] is 8.7%.

For `Cc1ccc(NC(=O)Cn2cc(-c3ccc4c(NC(=O)c5ccc(N6CCN(CCCCCC(=O)N[C@H](C(=O)N7C[C@H](O)C[C@H]7C(=O)NCc7ccc(-c8scnc8C)cc7)C(C)(C)C)CC6)cc5)n[nH]c4c3)cn2)cc1C(F)(F)F`, the IC50 at 72 h in series [3] was 43.8 µM; in series [4], greater than 50 µM; in series [5], greater than 100 µM. Further, the IC50 with HGC-27 is greater than 50 µM.

For the molecule `Cc1ccc(NC(=O)Cn2cc(-c3ccc4c(NC(=O)c5ccc(NC(=O)CCCCCC(=O)N[C@H](C(=O)N6C[C@H](O)C[C@H]6C(=O)NCc6ccc(-c7scnc7C)cc6)C(C)(C)C)cc5)n[nH]c4c3)cn2)cc1C(F)(F)F`, the EC50 in series [2] is greater than 3.33 µM. Besides, the IC50 at 72 h was greater than 100 µM in series [3], greater than 50 µM in series [4] and 31.3 µM in series [5]. Moreover, the IC50 with HGC-27 is 7.26 µM.

On to `CNC(=O)c1cc(Oc2ccc(NC(=O)Nc3ccc(Cl)c(C(F)(F)F)c3)cc2)ccn1` [SORAFENIB], for which the values for the IC50 at 72 h in series [3], in series [4] and in series [5] were 6.38 µM, 9.66 µM and 9.47 µM, respectively. Besides, the IC50 in the series on HGC-27 worked out at 5.15 µM.

In the case of `Cc1ccc(NC(=O)Cn2cc(-c3ccc4c(NC(=O)c5ccc(NC(=O)CCCCC(=O)N6CCN(CCCCC(=O)N[C@H](C(=O)N7C[C@H](O)C[C@H]7C(=O)NCc7ccc(-c8scnc8C)cc7)C(C)(C)C)CC6)cc5)n[nH]c4c3)cn2)cc1C(F)(F)F`, the EC50 in series [2] was determined as 0.64 µM. Besides, the IC50 at 72 h in series [3] turned out to be 38.7 µM; in series [4], 9.36 µM; in series [5] it was 23.1 µM. In addition, the IC50 with HGC-27 was 23.9 µM. Further, the Emax in series [6] was found to be 38.5%.

Consider `Cc1ccc(NC(=O)Cn2cc(-c3ccc4c(NC(=O)c5ccc(NC(=O)CCCCC(=O)N6CCN(CCCCCCCC(=O)N[C@H](C(=O)N7C[C@H](O)C[C@H]7C(=O)NCc7ccc(-c8scnc8C)cc7)C(C)(C)C)CC6)cc5)n[nH]c4c3)cn2)cc1C(F)(F)F`, for which the IC50 at 72 h worked out at 31.9 µM in series [3], 25 µM in series [4] and 47.9 µM in series [5]. For the same molecule, the IC50 in the series with HGC-27 was 44.7 µM.

On to `Cc1ccc(NC(=O)Cn2cc(-c3ccc4c(NC(=O)c5ccc(NC(=O)CCCCCCCC(=O)N[C@H](C(=O)N6C[C@H](O)C[C@H]6C(=O)NCc6ccc(-c7scnc7C)cc6)C(C)(C)C)cc5)n[nH]c4c3)cn2)cc1C(F)(F)F`, for which, in series [2], the EC50 was greater than 3.33 µM. In addition, the values for the IC50 at 72 h in series [3], in series [4] and in series [5] were greater than 100 µM, greater than 50 µM and 10.9 µM, respectively. For the same molecule, the IC50 in the series on HGC-27 came to 10.7 µM. In addition, the Emax in series [6] is 13.5%.

As for `Cc1ccc(NC(=O)Cn2cc(-c3ccc4c(NC(=O)c5ccc(NC(=O)CCCCC(=O)N6CCN(CCCCCCC(=O)N[C@H](C(=O)N7C[C@H](O)C[C@H]7C(=O)NCc7ccc(-c8scnc8C)cc7)C(C)(C)C)CC6)cc5)n[nH]c4c3)cn2)cc1C(F)(F)F`, the EC50 in series [2] was greater than 3.33 µM. Moreover, the results for the IC50 at 72 h in series [3], in series [4] and in series [5] were 24.1 µM, 29.6 µM and 51.4 µM, respectively. Also, the IC50 with HGC-27 is 20.4 µM. Further, the Emax in series [6] was determined as 31%.

For the molecule `Cc1ccc(NC(=O)Cn2cc(-c3ccc4c(NC(=O)c5ccc(N6CCN(C(=O)NCCCCCCCCC(=O)N[C@H](C(=O)N7C[C@H](O)C[C@H]7C(=O)NCc7ccc(-c8scnc8C)cc7)C(C)(C)C)CC6)cc5)n[nH]c4c3)cn2)cc1C(F)(F)F`, the IC50 at 72 h in series [3], in series [4] and in series [5] was greater than 100 µM each time. Moreover, in the series on HGC-27, the IC50 was greater than 50 µM.

Take `Cc1ccc(NC(=O)Cn2cc(-c3ccc4c(NC(=O)c5ccc(NC(=O)CCCCCCCCC(=O)N[C@H](C(=O)N6C[C@@H](O)C[C@H]6C(=O)NCc6ccc(-c7scnc7C)cc6)C(C)(C)C)cc5)n[nH]c4c3)cn2)cc1C(F)(F)F`: the EC50 in series [2] was greater than 3.33 µM. In addition, the IC50 at 72 h was greater than 100 µM in series [3], 12.2 µM in series [4] and 5.13 µM in series [5]. Besides, in the series with HGC-27, the half-maximal inhibitory concentration (IC50) came to 2.09 µM.

`Cc1ccc(NC(=O)Cn2cc(-c3ccc4c(NC(=O)c5ccc(N)cc5)nn(C(=O)CCCCCCCCC(=O)N[C@H](C(=O)N5C[C@H](O)C[C@H]5C(=O)NCc5ccc(-c6scnc6C)cc5)C(C)(C)C)c4c3)cn2)cc1C(F)(F)F`: the concentration giving a half-maximal response (EC50) in series [2] is greater than 3.33 µM. The IC50 at 72 h in series [3] came to 44.9 µM; in series [4], 5.5 µM; in series [5] it was 3.36 µM. In addition, the IC50 in the series on HGC-27 amounted to 12.1 µM.

`Cc1ccc(NC(=O)Cn2cc(-c3ccc4c(NC(=O)CCCCCCCCCCC(=O)N[C@@H](C(=O)N5C[C@H](O)C[C@H]5C(=O)NCc5ccc(-c6scnc6C)cc5)C(C)(C)C)n[nH]c4c3)cn2)cc1C(F)(F)F`: the inhibition in series [1] came to 60.4%. Moreover, the IC50 at 72 h was greater than 100 µM in series [3], greater than 50 µM in series [4] and greater than 50 µM in series [5]. Further, the IC50 with HGC-27 is greater than 50 µM.

`Cc1ccc(NC(=O)Cn2cc(-c3ccc4c(NC(=O)c5ccc(N6CCN(C(=O)NCCCCCCC(=O)N[C@H](C(=O)N7C[C@H](O)C[C@H]7C(=O)NCc7ccc(-c8scnc8C)cc7)C(C)(C)C)CC6)cc5)n[nH]c4c3)cn2)cc1C(F)(F)F`: the IC50 at 72 h in series [3], in series [4] and in series [5] was greater than 100 µM each time. In addition, the IC50 in the series with HGC-27 was greater than 50 µM.
